Experimental data published in patent publication EP4003298B1 (Offhealth S.p.A., priority 2019, dated 2021).

Columns and labels:
[1] = system: reconstructed human epidermis; details: 24 h
Method: The assay included a prime MTT assay at the end of the incubation: cell survival assay using the reconstructed in vitro 3D artificial human epidermis to assess the cytotoxic potential of the sample.
The in vitro test systems used consist of an artificial three-dimensional system of the human epidermis. A reconstructed model of artificial human skin was prepared comprising normal human epidermal keratinocytes, which was grown as an integrated three-dimensional cell culture model, perfectly mimicking human skin in vitro.
The epidermis was pre-treated for 60 minutes with 0.25% SLS and was obtained in order to induce the synthesis and release of IL-1α. Later 30 µl of the formulation object of the invention was applied on two portions of the epidermis in two replicates, and the exposure was carried out for 24 hours at 37°C, 5% C02. […]
The epidermal units are treated with 1 mg of MD (3-4,5-dimethyl-thiazol-2-yl)-2,5-diphenyl-tetrazolium bromide) solution for 3 hours at 37°C. The solution is then removed and replaced with isopropanol, with a further 2 hours of incubation at room temperature; 2 aliquots of each sample are transferred to a 96-well plate for reading. The absorbance is read at the 570 nm wavelength with a colorimeter (Tecan Sunrise remote model) provided with a microplate reader. […]

IL-1α = IL-1α release ELISA on SLS-irritated reconstructed human epidermis; type: cell-based; details: positive control SLS 0.25% only
Method: The assay was performed in two replicates.
In this study IL-1α was determined in the culture medium of treated and untreated epidermis, using a direct ELIS assay (enzyme-linked immuno-absorbent assay). The colorimetric signal is directly proportional to the amount of cytokine in the culture medium. The samples are read at 450 nm. The detection limit is less than 10 pg/ml.
Cytokine concentration is determined using a standard curve. The inhibition of IL-1α release was determined as: % of IL-1α inhibition: 100−(pg/ml IL−1α released from irritated; samples/pg/ml IL−1α positive control)*100 [formula]

## CCCCCCCCCCCCOS(=O)(=O)[O-].[Na+] [SLS, sodium lauryl sulfate]
[1]
  % Average cell viability (ds): 65.79 (0.45) %
IL-1α; 6h
  IL-1α pg/ml average: 79.17 pg/mL
IL-1α; 24h
  IL-1α pg/ml average: 233.86 pg/mL
